# Like-named read-outs stand apart in the source and are kept apart here.
# Tests used:
# [1] = Solubilization of lumichrome in the FMN formulation; type: physicochemical
# [2] = Solubility of riboflavin as a function of pH and % FMN; type: physicochemical; details: for solubility thermodynamic: thermodynamic from solid
# Source text: The equilibrium solubility of riboflavin is approximately 70 mcg/ml (see plot below with no FMN present). Precipitation is expected to occur if riboflavin reaches a level above this (due to riboflavin in drug substance or due to degradation to riboflavin with time), and precipitation would be unacceptable for patient safety with intravenous use.
# Solubility of Riboflavin as a function of pH and % FMN [formula]
# At 1% FMN, up to 365 mcg/ml of riboflavin can dissolve.
"solubility thermodynamic ([2]; 1% FMN solution, aqueous with cosolvent or surfactant or cyclodextrin, read-out: riboflavin that can dissolve (equilibrium solubility)) [µg/mL]","solubility thermodynamic ([2]; 5% FMN solution, aqueous with cosolvent or surfactant or cyclodextrin, 5% FMN, pH 7-8, read-out: riboflavin that can dissolve (equilibrium solubility)) [µg/mL]",equilibrium solubility of riboflavin ([2]; no FMN present),"solubility thermodynamic ([2]; no FMN present, read-out: equilibrium solubility of riboflavin) [µg/mL]",Structure (SMILES),solubility of lumichrome in the current formulation [1]
–,–,–,–,Cc1cc2nc3[nH]c(=O)[nH]c(=O)c3nc2cc1C [lumichrome],dissolve at levels above the equilibrium solubility
≤ 365,≤ 1320,approximately 70 mcg/ml,~70,Cc1cc2nc3c(=O)[nH]c(=O)nc-3n(C[C@H](O)[C@H](O)[C@H](O)CO)c2cc1C [riboflavin],–
